Experimental data from ChEMBL document CHEMBL4312013 (Eur J Med Chem, 2020).
Converted amounts (≈) assume the structure as drawn. Each block holds one compound with its values, some of them ahead of it. The source made the active and inactive calls. No cut-off for these calls is given here.

What was measured:
Escherichia coli [1] = experiment: microbe, parasite or virus in culture; type: functional; conditions: NCTC 8196, 18 h
Staphylococcus aureus [2] = experiment: microbe, parasite or virus in culture; type: functional; conditions: ATCC 6538, 18 h
Enterococcus hirae = experiment: microbe, parasite or virus in culture; type: functional; conditions: ATCC 10541, 18 h
Pseudomonas aeruginosa [3] = experiment: microbe, parasite or virus in culture; type: functional; conditions: ATCC 15442, 18 h
Escherichia coli [4] = experiment: microbe, parasite or virus in culture; type: functional; conditions: ATCC 25922, 18 h
Staphylococcus aureus [5] = experiment: microbe, parasite or virus in culture; type: functional; conditions: NCTC 4163, 18 h
Staphylococcus aureus [6] = experiment: microbe, parasite or virus in culture; type: functional; conditions: ATCC 29213, 18 h
Pseudomonas aeruginosa [7] = experiment: microbe, parasite or virus in culture; type: functional; conditions: ATCC 27853, 18 h
[8] = test system: Staphylococcus epidermidis; experiment: microbe, parasite or virus in culture; type: functional; conditions: ATCC 12228, 18 h
PC-3 [9] = experiment: Induction of apoptosis in human PC3 cells assessed as viable cells at antiproliferative IC50 incubated for 72 hrs by annexin V FITC and PI staining based flow cytometry (reference value: 95.1 %); type: functional
HaCaT [10] = experiment: Induction of apoptosis in human HaCaT cells at antiproliferative IC50 incubated for 72 hrs by annexin V FITC and PI staining based flow cytometry; type: cell-based
PC-3 [11] = experiment: Cytotoxicity against human PC3 cells at 20 uM incubated for 72 hrs by LDH release assay (reference value: […]); type: functional
PC-3 [12] = experiment: Cytotoxicity against human PC3 cells at 10 uM incubated for 72 hrs by LDH release assay (reference value: […]); type: functional
HaCaT [13] = experiment: Reduction of IL-6 level in human HaCaT cells at antiproliferative IC50 incubated for 72 hrs by ELISA relative to control; type: cell-based
SW-620 [14] = experiment: Cytotoxicity against human SW620 cells at 60 uM incubated for 72 hrs by LDH release assay (reference value: 4.2 %); type: functional
SW480 [15] = experiment: Cytotoxicity against human SW480 cells at 10 uM incubated for 72 hrs by LDH release assay (reference value: […]); type: functional
SW480 [16] = experiment: Cytotoxicity against human SW480 cells at 20 uM incubated for 72 hrs by LDH release assay (reference value: […]); type: functional
PC-3 [17] = experiment: Induction of apoptosis in human PC3 cells assessed as late apoptotic cells at antiproliferative IC50 incubated for 72 hrs by annexin V FITC and PI staining based flow cytometry (reference value: […]); type: functional
SW480 [18] = experiment: Reduction of IL-6 level in human SW480 cells at antiproliferative IC50 incubated for 72 hrs by ELISA relative to control; type: functional
PC-3 [19] = experiment: Induction of apoptosis in human PC3 cells assessed as necrotic cells at antiproliferative IC50 incubated for 72 hrs by annexin V FITC and PI staining based flow cytometry (reference value: […]); type: functional
SW480 [20] = experiment: Cytotoxicity against human SW480 cells at 60 uM incubated for 72 hrs by LDH release assay (reference value: […]); type: functional
PC-3 [21] = experiment: Cytotoxicity against human PC3 cells at 40 uM incubated for 72 hrs by LDH release assay (reference value: […]); type: functional
PC-3 [22] = experiment: Induction of apoptosis in human PC3 cells assessed as early apoptotic cells at antiproliferative IC50 incubated for 72 hrs by annexin V FITC and PI staining based flow cytometry (reference value: […]); type: functional
SW-620 [23] = experiment: Cytotoxicity against human SW620 cells at 20 uM incubated for 72 hrs by LDH release assay (reference value: 4.2 %); type: functional
PC-3 [24] = experiment: Cytotoxicity against human PC3 cells at 60 uM incubated for 72 hrs by LDH release assay (reference value: […]); type: functional
SW-620 [25] = experiment: Cytotoxicity against human SW620 cells at 10 uM incubated for 72 hrs by LDH release assay (reference value: 4.2 %); type: functional
SW480 [26] = experiment: Cytotoxicity against human SW480 cells at 40 uM incubated for 72 hrs by LDH release assay (reference value: […]); type: functional
SW-620 [27] = experiment: Induction of apoptosis in human SW620 cells at antiproliferative IC50 incubated for 72 hrs by annexin V FITC and PI staining based flow cytometry; type: functional
SW-620 [28] = experiment: Reduction of IL-6 level in human SW620 cells at antiproliferative IC50 incubated for 72 hrs by ELISA relative to control; type: functional
SW-620 [29] = experiment: Cytotoxicity against human SW620 cells at 40 uM incubated for 72 hrs by LDH release assay (reference value: 4.2 %); type: functional
HaCaT [30] = experiment: Cytotoxicity against human HaCaT cells assessed as reduction in cell viability incubated for 72 hrs by MTT assay; type: cell-based
SW480 [31] = experiment: Antiproliferative activity against human SW480 cells assessed as reduction in cell viability incubated for 72 hrs by MTT assay; type: functional, cell-based; conditions: SW480, 72 h
PC-3 [32] = experiment: Antitumor activity against human PC3 cells assessed as reduction in IL-6 level at antiproliferative IC50 incubated for 72 hrs by ELISA relative to control; type: functional

Structure (SMILES): O=C(O)c1cn(C2CC2)c2cc(N3CCNCC3)c(F)cc2c1=O [CIPROFLOXACIN]
Activity (PC-3 [9]): 59.7% | Activity (HaCaT [10]): 6.2 to 12% | Activity (PC-3 [11]): 16.5% | MIC (Staphylococcus aureus [2]): 0.5 µg/mL (≈ 1.51 µM) | Activity (PC-3 [12]): 14% | MIC (Enterococcus hirae): 8 µg/mL (≈ 24.1 µM) | Activity (HaCaT [13]): Active | Activity (SW-620 [14]): 9.3% | Activity (SW480 [15]): 12% | MIC (Staphylococcus aureus [5]): 0.25 µg/mL (≈ 0.754 µM) | Activity (SW480 [16]): 14.2% | Activity (PC-3 [17]): 31.1% | MIC (Staphylococcus aureus [6]): 0.5 µg/mL (≈ 1.51 µM) | Activity (SW480 [18]): Active | Activity (PC-3 [19]): 3.9% | Activity (SW480 [20]): 15% | Activity (PC-3 [21]): 17.5% | Activity (PC-3 [22]): 5.3% | Activity (SW-620 [23]): 8.9% | Activity (PC-3 [24]): 18% | Activity (SW-620 [25]): 8.1% | Activity (SW480 [26]): 14.5% | MIC [8]: 0.25 µg/mL (≈ 0.754 µM) | Activity (SW-620 [27]): 31.4 - 39.2% | Activity (SW-620 [28]): Active | Activity (SW-620 [29]): 9.1%

Structure (SMILES): COc1cccc2c1C(=O)c1c(O)c3c(c(O)c1C2=O)C[C@@](O)(C(=O)CO)C[C@@H]3O[C@H]1C[C@H](N)[C@H](O)[C@H](C)O1 [DOXORUBICIN]
Activity (HaCaT [13]): Active | Activity (SW480 [18]): Active | IC50 (HaCaT [30]): 290 nM | IC50 (SW480 [31]): 750 nM | Activity (PC-3 [32]): Active | Activity (SW-620 [28]): Active

Structure (SMILES): CC/C=C\C/C=C\C/C=C\CCCCCCCC(=O)O [LINOLENIC ACID]
MIC (Escherichia coli [1]): > 512 µg/mL | MIC (Staphylococcus aureus [2]): 128 µg/mL (≈ 460 µM) | MIC (Enterococcus hirae): 512 µg/mL (≈ 1840 µM) | MIC (Pseudomonas aeruginosa [3]): 512 µg/mL (≈ 1840 µM) | MIC (Escherichia coli [4]): > 512 µg/mL | MIC (Staphylococcus aureus [5]): 128 µg/mL (≈ 460 µM) | MIC (Staphylococcus aureus [6]): 128 µg/mL (≈ 460 µM) | MIC (Pseudomonas aeruginosa [7]): 512 µg/mL (≈ 1840 µM) | MIC [8]: 512 µg/mL (≈ 1840 µM)

Structure (SMILES): C/C=C/C=C/C(=O)O [SORBIC ACID]
MIC (Escherichia coli [1]): > 512 µg/mL | MIC (Staphylococcus aureus [2]): > 512 µg/mL | MIC (Enterococcus hirae): 512 µg/mL (≈ 4570 µM) | MIC (Pseudomonas aeruginosa [3]): 512 µg/mL (≈ 4570 µM) | MIC (Escherichia coli [4]): 512 µg/mL (≈ 4570 µM) | MIC (Staphylococcus aureus [5]): > 512 µg/mL | MIC (Staphylococcus aureus [6]): > 512 µg/mL | MIC (Pseudomonas aeruginosa [7]): 512 µg/mL (≈ 4570 µM) | MIC [8]: > 512 µg/mL

Second part, the compound after the results:

MIC (Escherichia coli [1]): > 512 µg/mL | MIC (Staphylococcus aureus [2]): > 512 µg/mL | MIC (Enterococcus hirae): 512 µg/mL (≈ 3040 µM) | MIC (Pseudomonas aeruginosa [3]): 512 µg/mL (≈ 3040 µM) | MIC (Escherichia coli [4]): 512 µg/mL (≈ 3040 µM) | MIC (Staphylococcus aureus [5]): > 512 µg/mL | MIC (Staphylococcus aureus [6]): > 512 µg/mL | MIC (Pseudomonas aeruginosa [7]): 512 µg/mL (≈ 3040 µM) | MIC [8]: 512 µg/mL (≈ 3040 µM)
Structure (SMILES): CC(C)=CCC/C(C)=C/C(=O)O

MIC (Escherichia coli [1]): > 512 µg/mL | MIC (Staphylococcus aureus [2]): > 512 µg/mL | MIC (Enterococcus hirae): > 512 µg/mL | MIC (Pseudomonas aeruginosa [3]): > 512 µg/mL | MIC (Escherichia coli [4]): > 512 µg/mL | MIC (Staphylococcus aureus [5]): > 512 µg/mL | MIC (Staphylococcus aureus [6]): > 512 µg/mL | MIC (Pseudomonas aeruginosa [7]): > 512 µg/mL | MIC [8]: > 512 µg/mL
Structure (SMILES): C/C=C/C(=O)O [CROTONIC ACID]

MIC (Escherichia coli [1]): 512 µg/mL (≈ 1810 µM) | MIC (Staphylococcus aureus [2]): 512 µg/mL (≈ 1810 µM) | MIC (Enterococcus hirae): 512 µg/mL (≈ 1810 µM) | MIC (Pseudomonas aeruginosa [3]): 512 µg/mL (≈ 1810 µM) | MIC (Escherichia coli [4]): 512 µg/mL (≈ 1810 µM) | MIC (Staphylococcus aureus [5]): 512 µg/mL (≈ 1810 µM) | MIC (Staphylococcus aureus [6]): 512 µg/mL (≈ 1810 µM) | MIC (Pseudomonas aeruginosa [7]): 512 µg/mL (≈ 1810 µM) | MIC [8]: 512 µg/mL (≈ 1810 µM)
Structure (SMILES): CCCCCCCC/C=C/CCCCCCCC(=O)O [ELAIDIC ACID]

MIC (Escherichia coli [1]): 512 µg/mL (≈ 1510 µM) | MIC (Staphylococcus aureus [2]): 128 µg/mL (≈ 378 µM) | MIC (Enterococcus hirae): 64 µg/mL (≈ 189 µM) | MIC (Pseudomonas aeruginosa [3]): 512 µg/mL (≈ 1510 µM) | MIC (Escherichia coli [4]): > 512 µg/mL | MIC (Staphylococcus aureus [5]): > 512 µg/mL | MIC (Staphylococcus aureus [6]): > 512 µg/mL | MIC (Pseudomonas aeruginosa [7]): 512 µg/mL (≈ 1510 µM) | MIC [8]: 256 µg/mL (≈ 756 µM)
Structure (SMILES): CCCCCCCC/C=C\CCCCCCCCCCCC(=O)O [ERUCIC ACID]

MIC (Escherichia coli [1]): 512 µg/mL (≈ 1810 µM) | MIC (Staphylococcus aureus [2]): 256 µg/mL (≈ 906 µM) | MIC (Enterococcus hirae): 128 to 256 µg/mL (≈ 453 to 906 µM) | MIC (Pseudomonas aeruginosa [3]): 512 µg/mL (≈ 1810 µM) | MIC (Escherichia coli [4]): 512 µg/mL (≈ 1810 µM) | MIC (Staphylococcus aureus [5]): 256 to 512 µg/mL (≈ 906 to 1810 µM) | MIC (Staphylococcus aureus [6]): 256 to 512 µg/mL (≈ 906 to 1810 µM) | MIC (Pseudomonas aeruginosa [7]): 256 to 512 µg/mL (≈ 906 to 1810 µM) | MIC [8]: 512 µg/mL (≈ 1810 µM)
Structure (SMILES): CCCCCCCC/C=C\CCCCCCCC(=O)O [OLEIC ACID]

MIC (Escherichia coli [1]): 512 µg/mL (≈ 2000 µM) | MIC (Staphylococcus aureus [2]): 512 µg/mL (≈ 2000 µM) | MIC (Enterococcus hirae): 512 µg/mL (≈ 2000 µM) | MIC (Pseudomonas aeruginosa [3]): 512 µg/mL (≈ 2000 µM) | MIC (Escherichia coli [4]): 512 µg/mL (≈ 2000 µM) | MIC (Staphylococcus aureus [5]): 512 µg/mL (≈ 2000 µM) | MIC (Staphylococcus aureus [6]): 512 µg/mL (≈ 2000 µM) | MIC (Pseudomonas aeruginosa [7]): 512 µg/mL (≈ 2000 µM) | MIC [8]: 512 µg/mL (≈ 2000 µM)
Structure (SMILES): CCCCCCCCCCCCCCCC(=O)O [PALMITIC ACID]
